Data: patent US5451599A, “Complex salts of hematoporphyrin and of its derivatives, their synthesis, and therapeutic agent” (Wojskowa Akademia Techniczna im. Jaroslawa Dabrowskiego, priority 1991, dated 1995)

Legend:
[1] = tested on: MA-104 (Rhesus monkey embryo kidney cancer cells); test: 48 h incubation with the salts: cell fluorescence, living cells, multiplication coefficient (Table 1); assay type: cell-based; conditions: 48 hs, 50 mcg/ml
Experimental: (§1) New compounds of formula 1 were tested on cell lines. Use was made of 9 different neoplastic cell lines which were incubated for 48 hs with various new salts of protoporphyrin and with a new salt of the conventionally applied HpD preparation/hematoporphyrin derivatives/obtained according to Lipson et al. All compounds were used in the form of aqueous solutions, at a concentration of 50 mcg/ml. Determination was made of:
(§2) 1/ Cell fluorescence /F/: after 48 hs incubation, the cells were washed away, the intensity of fluorescence was measured in a fluorescence microscope and was expressed on an arbitrary scale of 0-4 scores;
(§3) 2/ Percentage of living cells /P %/ after 48 hs incubation;
(§4) 3/ Cell multiplication coefficient /M/ in the presence of different preparations, expressed as: [formula]

CL = test: as above; assay type: cell-based; conditions: 48 hs, 50 mcg/ml
Experimental: as §1, §2, §3, §4

PZ = test: as above; assay type: cell-based; conditions: 48 hs, 50 mcg/ml
Experimental: as §1, §2, §3, §4

[2] = tested on: GR (GRMT/F6, mammary gland cancer cells of GR-strain mice); test: 48 h incubation with the salts: cell fluorescence, living cells, multiplication coefficient (Table 2); assay type: cell-based, Murine; conditions: 48 hs, 50 mcg/ml
Experimental: as §1, §2, §3, §4
GRMT/F6 mammary gland cancer cells of GR-strain mice

[3] = tested on: HEp-2 (larynx cancer cells); test: 48 h incubation with the salts: cell fluorescence, living cells, multiplication coefficient (Table 3); assay type: cell-based, Human; conditions: 48 hs, 50 mcg/ml
Experimental: as §1, §2, §3, §4
Hep-2 larynx cancer cells

[4] = tested on: transplanted mammary gland cancer; test: survival of C3H mice with transplanted mammary gland cancer, with and without He-Ne laser irradiation (FIG. 6); assay type: in vivo; conditions: 10 mg/kg body weight; with or without He-Ne laser 150 J/cm^2
Experimental: FIG. 6 is a graph showing the survival rate of C3H mice with transplanted mammary gland cancer after administration of compounds of the invention (with and without irradiation) and a control.
The new compounds were also studied in animals.
In animal studies, C3H mice with transplanted mammary gland cancer were administered both above-mentioned compounds in a dose of 10 mg/kg body weight, in two variants: mice irradiated with He-Ne laser in a dose of 150 J/cm^2 /in FIG. 6, marked by the letter L next to the symbol of the compound/and not irradiated ones. The results are recorded in the Figure.

[5] = tested on: T-47D (breast cancer cells); test: 48 h incubation with the salts: cell fluorescence, living cells, multiplication coefficient (Table 3); assay type: cell-based, Human; conditions: 48 hs, 50 mcg/ml
Experimental: as §1, §2, §3, §4
T-47D breast cancer cells

[6] = tested on: KB (oral cavity cancer cells); test: 48 h incubation with the salts: cell fluorescence, living cells, multiplication coefficient (Table 2); assay type: cell-based, Human; conditions: 48 hs, 50 mcg/ml
Experimental: as §1, §2, §3, §4
KB oral cavity cancer cells

[7] = tested on: HBT-39/w (breast cancer cells); test: as above; assay type: cell-based, Human; conditions: 48 hs, 50 mcg/ml
Experimental: as §1, §2, §3, §4

[8] = tested on: Mm (Mm5MT/C1, mammary gland cancer cells of C3H-strain mice); test: 48 h incubation with the salts: cell fluorescence, living cells, multiplication coefficient (Table 3); assay type: cell-based, Murine; conditions: for Cell fluorescence /F/ / Cell multiplication coefficient /M/ / Percentage of living cells /P %/: Mm, 48 hs, 50 mcg/ml
Experimental: as §1, §2, §3, §4
mammary gland cancer cells of C3H-strain mice

[9] = tested on: Hela (cervix uteri cancer cells); test: 48 h incubation with the salts: cell fluorescence, living cells, multiplication coefficient (Table 1); assay type: cell-based, Human; conditions: 48 hs, 50 mcg/ml
Experimental: as §1, §2, §3, §4

Row | Compound | Cell fluorescence /F/ [1] | Cell multiplication coefficient /M/ [1] | Percentage of living cells /P %/ [1] [%] | Cell fluorescence /F/ (CL) | Cell multiplication coefficient /M/ (CL) | Percentage of living cells /P %/ (CL) [%] | Cell fluorescence /F/ (PZ) | Cell multiplication coefficient /M/ (PZ) | Percentage of living cells /P %/ (PZ) | Cell fluorescence /F/ [2] | Cell multiplication coefficient /M/ [2] | Percentage of living cells /P %/ [2] [%] | Cell fluorescence /F/ [3] | Cell multiplication coefficient /M/ [3] | Percentage of living cells /P %/ [3] [%] | Cell fluorescence /F/ [5] | Cell multiplication coefficient /M/ [5] | Percentage of living cells /P %/ [5] [%] | Cell multiplication coefficient /M/ [6] | Percentage of living cells /P %/ [6] [%] | further results
1 | CC1=C(CCC(=O)O)c2cc3[nH]c(cc4nc(cc5[nH]c(cc1n2)c(C(C)NC(CCCCN)C(=O)O)c5C)C(C(C)NC(CCCCN)C(=O)O)=C4C)c(C)c3CCC(=O)O.N=C(N)NCCC[C@H](N)C(=O)O.N=C(N)NCCC[C@H](N)C(=O)O (stereo not drawn) [PP/Lys/2 /Arg/2, l-arginine di/N-lysyl/-protoporphyrinate] | - | 0,10 | 0 | + | 0,30 | 30 | + | 0,50 | 50% | +++ | 0,75 | 25 | ++ | 0,42 | 10 | ++ | 0,92 | 57 | 0,12 | 12 | mice survival [4]: most active, greatly prolonging mice survival; Cell fluorescence /F/ [6]: -; Cell fluorescence /F/ [7]: ++++; Cell multiplication coefficient /M/ [7]: 0,44; Percentage of living cells /P %/ [7]: 47%; Cell fluorescence /F/ [8]: ++; Cell multiplication coefficient /M/ [8]: 0,80; Percentage of living cells /P %/ [8]: 33%; activity in studies of the Mm5MT/C1 cell line (in words) ([8]; mammary gland cancer of C3H mice): one of the most active ones; Cell fluorescence /F/ [9]: +++; Cell multiplication coefficient /M/ [9]: 0,16; Percentage of living cells /P %/ [9]: 16%
2 | CC1=C(CCC(=O)O)c2cc3[nH]c(cc4nc(cc5[nH]c(cc1n2)c(C(C)NC(CO)C(=O)O)c5C)C(C(C)NC(CO)C(=O)O)=C4C)c(C)c3CCC(=O)O.N=C(N)NCCC[C@H](N)C(=O)O.N=C(N)NCCC[C@H](N)C(=O)O (stereo not drawn) [PP/Ser/2 /Arg/2, l-arginine di/N-seryl/-protoporphyrinate] | - | 0,16 | 0 | + | 0 | 0 | ++ | 0,02 | 2,5% | + | 0,12 | 12 | + | 0,50 | 25 | +++ | 0,60 | 40 | 0 | 0 | Cell fluorescence /F/ [6]: ++; Cell fluorescence /F/ [7]: ++; Cell multiplication coefficient /M/ [7]: 0,50; Percentage of living cells /P %/ [7]: 33%; Cell fluorescence /F/ [8]: +; Cell multiplication coefficient /M/ [8]: 0,37; Percentage of living cells /P %/ [8]: 37%; Cell fluorescence /F/ [9]: ++; Cell multiplication coefficient /M/ [9]: 0,50; Percentage of living cells /P %/ [9]: 55%
3 | CC1=C(CCC(=O)O)c2cc3[nH]c(cc4nc(cc5[nH]c(cc1n2)c(C(C)NC(Cc1c[nH]c2ccccc12)C(=O)O)c5C)C(C(C)NC(Cc1c[nH]c2ccccc12)C(=O)O)=C4C)c(C)c3CCC(=O)O.N=C(N)NCCC[C@H](N)C(=O)O.N=C(N)NCCC[C@H](N)C(=O)O (stereo not drawn) [PP/Trp/2 /Arg/2, l-arginine di/N-tryptophanyl/-protoporphyrinate] | + | 0,25 | 25 | - | 0,50 | 50 | + | 0,50 | 50% | +++ | 0,62 | 62 | +++ | 0,15 | 15 | + | 0,13 | 13 | 0,21 | 21 | Cell fluorescence /F/ [7]: ++++; Cell multiplication coefficient /M/ [7]: 0,11; Percentage of living cells /P %/ [7]: 18%; Cell fluorescence /F/ [8]: +++; Cell multiplication coefficient /M/ [8]: 0,33; Percentage of living cells /P %/ [8]: 11%; Cell fluorescence /F/ [9]: +++; Cell multiplication coefficient /M/ [9]: 0,62; Percentage of living cells /P %/ [9]: 62%
4 | l-arginine di/N-arginyl/-protoporphyrinate [PP/Arg/2 /Arg/2] | ++ | 0,42 | 31 | ++ | 0,03 | 4 | + | 0,10 | 10% | +++ | 0,12 | 12 | + | 0,14 | 5 | +++ | 0,40 | 40 | 0,16 | 16 | Cell fluorescence /F/ [6]: +; Cell fluorescence /F/ [7]: ++++; Cell multiplication coefficient /M/ [7]: 0,28; Percentage of living cells /P %/ [7]: 28%; Cell fluorescence /F/ [8]: +++; Cell multiplication coefficient /M/ [8]: 0,38; Percentage of living cells /P %/ [8]: 12%; Cell fluorescence /F/ [9]: ++++; Cell multiplication coefficient /M/ [9]: 0,28; Percentage of living cells /P %/ [9]: 11%
